Where two headings read alike, the source gives them in different places.
Legend:
Type in all cases: cell-based
HPV16 E7 protein = biological target: T1, HPV16 E7 protein (Human papillomavirus type 16, UniProt P03129); details: CaSki cells; for % Dad: adjusted degradation, CHX steady state set to 100% degradation
T1 construct: endogenous in cells; host or cells: CaSki cells (HPV16-positive cervical carcinoma)
Description: For intracellular antibody labeling, 0.5×10^6 cells are washed once with 1 ml ice-cold PBS. Cells are centrifuged at 350×g for 5 minutes at 4° C. and then fixed in 1% paraformaldehyde (1 ml/10^6 cells) for 20 minutes at 4° C. Cells are washed with 1 ml ice-cold PBS and centrifuged at 350×g for 5 minutes at 4° C. To permeabilize cells, 100% ice-cold methanol (1 ml/10^6 cells) is added to the cells and incubated for 20 minutes at 4° C. followed by centrifugation at 350×g for 5 minutes at 4° C. Cells are washed with 1 ml ice-cold PBS, centrifuged at 350×g for 5 minutes at 4° C. and resuspended in 0.1% saponin+2% FBS in PBS (ice-cold). Cells are left for 20-30 minutes at room temperature to reduce the background signal and then centrifuged at 350×g for 5 minutes at 4° C. The primary antibody (mAb_HPV16E7-1 (VS13004); concentration 1 μg/μl) is diluted in 0.1% saponin+2% FBS (dilution 0.25 μg/50 μl of incubation buffer per 1×10^6 cells (5 ng/μl)). Cells are incubated with primary antibody for 30 minutes at room temperature, washed with 0.1% saponin+2% FBS and centrifuged at 350×g for 5 minutes at 4° C. The secondary antibody (FITC conjugated goat anti-mouse IgG1-IgM, BD, cat. #555988) is diluted in 0.1% saponin+2% FBS (dilution 1:50). Cells are incubated with secondary antibody for 30 minutes at room temperature, washed once with 0.1% saponin+2% FBS, once with PBS and centrifuged at 350×g for 5 minutes at 4° C.
Cells are resuspended in 700 μl PBS prior to CF analysis with a Beckman Coulter FC 500 MPL, (excitation laser 488 nm). Data analysis is done using the Beckman Coulter software packages MXP for acquisition and CXP for data analysis which includes MFI calculation. Detection of HPV-E7 protein expression is based on morphology back-gating of FL1 histogram (logarithmic scale) with gating for dot plot FS (Forward Scatter) log/SS (Sideward Scatter) log and gating for histograms SS log.
In order to define the level of E7 protein expression and to study the extent of E7 protein steady state level reduction in E7 expressing cells in the presence of various compounds, FC analysis is implemented using the intracellular antibody labeling procedure for monoclonal antibodies to HPV E7. E7 signal intensities are analyzed from the obtained FL1 histograms at logarithmic scale. The FL1 single histogram graph represents the variation in the mean fluorescence intensity (MFI) channel for cells treated with selected compounds compared to cells not incubated with primary antibodies but incubated with secondary, which allows to test for auto-fluorescence, and non-compound treated cells as controls. Non-primary antibody-stained cells are used to set the acquisition parameters to zero. Decrease of the mean fluorescence intensity channel corresponds to a decrease in the expression of HPV16 E7 protein. Degradation of E7 in cells is calculated as percent (%) reduction in MFI(x-Me) using the following formulas: % Drel=(T−C)/T*100; i) relative degradation: % Dad=(T−C)/(T−CHX)*100; ii) adjusted degradation: • Drel=relative degradation, • Dad=adjusted degradation assuming CHX % Drel=100; • T=MFI of non-treated cells; • C=MFI of compound treated cells; • CH=MFI of cycloheximide (CHX) treated cells;
For comparison within one experiment i) the % relative degradation (Drel) is sufficient, whereas for comparison between two or more experiments ii) the adjusted degradation (Dad) is used and CHX steady state is set to a 100% degradation parameter.
1×10^6 freshly seeded CaSki cells (ATCC CRL-7915), are grown in 10 cm diameter cell culture dishes in RPMI1640, 10% FCS medium at 37° C. 5% CO2 overnight and then incubated in the presence of 10 μM Cycloheximide (CHX) 10 μM OC246 or with vehicle alone for four hours at 37° C. 5% CO2. Following this E7 protein is assessed by cytofluorimetric analysis using intracellular HPV16 E7 antibody labeling. […]

[1] = tested on: CaSki (ATCC CRM-CRL-1550); test: Monolayer assay using Sulphorhodamine B (SRB) staining, CaSki; details: Homo sapiens, Ca-Ski
Description: Various cell culture cells grown as monolayers are harvested from exponential growing cultures after treatment with various OC compounds at different concentrations. For this depending on the cell line, 10.000 to 30.000 cells were plated in 96-well flat-bottom microtiter plates. After a 24 h recovery period to allow cells to resume exponential growth, supernatants are discarded and 100 μl of culture medium (eight control wells/plate) or culture medium with the test compound are added by a liquid handling robotic system (Microlab® Starlet, Hamilton) and treatment continued for 72 hrs. Compounds are applied at 9 concentrations and eight wells/concentration). At least three independent experiments are performed. For SRB staining, cells are fixed with SRB01 (Tab. 5) for 1 h at 4° C. (final concentration of TCA=10%) washed with a plate washer (Hydroflex, Tecan©) for five times with H2O; and stained with 100 μl of SRB02 at room temperature for 10 min following 4 washes in SRB03 and finally 100 μl of developer solution SRB04 for 5 minutes with shaking. Optical density is assessed using a plate-reader (Sunrise, Tecan©) at 540 nm.
Concentrations required for half maximal response of the compound for cell growth inhibition (EC50) is calculated by non-linear regression (log[conc. of inhibitor] versus response (% T/C)) using the analysis software GraphPad Prism®, Prism 5 for windows, version 5.01 (GraphPad Software Inc., CA).

[2] = tested on: SARS-CoV-2 isolate BetaCov/Belgium/GHB-03021/2020; test: microbe, parasite or virus in culture; details: 1.25 μM (non-toxic compound concentration), n4; for inhibition at 1.25 µM: Severe acute respiratory syndrome coronavirus 2
[3] = SRB assay from Caski cells, “0” = no activity detected with the concentrations tested, read-out: EC50 mean

T1 sequence (P03129 whole entry): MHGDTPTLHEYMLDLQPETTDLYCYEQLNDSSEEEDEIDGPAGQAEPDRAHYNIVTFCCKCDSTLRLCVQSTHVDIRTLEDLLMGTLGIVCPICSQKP

Compound | % Dad (HPV16 E7 protein) [%] | inhibition at 1.25 µM [2] [%] | further results
COc1ccc2c(c1)C(=O)N(Cc1ccc(C)cc1)[C@@H](c1ccc(C(F)(F)F)cc1)[C@@H]2C(=O)Nc1cccc(N2CCN(C)CC2)c1 (relative stereo) [OC969] | 66 |  | 
CC(=O)Nc1ccc2c(c1)C(=O)N(Cc1ccc(C)cc1)[C@@H](c1ccc(C(F)(F)F)cc1)[C@@H]2C(=O)Nc1cccc(N2CCN(C)CC2)c1 (relative stereo) [OC970] | 20 | 3.03 | EC50 ([1]; read-out: EC50 mean [nM]): 5550 nM
COc1cc2c(cc1OC)[C@@H](C(=O)Nc1cccc(N3CCN(C)CC3)c1)[C@H](c1ccc(C(F)(F)F)cc1)N(Cc1ccc(C)cc1)C2=O (relative stereo) [OC971] | 26 |  | 
C[C@@H]1C[C@@H]([C@H](O)CC2CC(=O)NC(=O)C2)C(=O)[C@@H](C)C1 [CHX, Cycloheximide, reference compound] |  |  | % Drel (relative degradation) (HPV16 E7 protein; 10 μM, four hours): 78.78%; % Dab (adjusted degradation) (HPV16 E7 protein; 10 μM, four hours, CHX set to 100): 100%; MFI (mean fluorescence intensity) of E7 signal (HPV16 E7 protein; 10 μM, four hours, vehicle T 8.06): 1.71
O=C(NOCC1CC1)c1ccc(F)c(F)c1Nc1ccc(I)cc1Cl [CI-1040, 2-(2-Chloro-4-iodophenylamino)-N-(cyclopropylmethoxy)-3,4-difluorobenzamide, reference compound] |  | 146 | 
COc1ccc2cc1Oc1ccc(cc1)C[C@H]1c3c(cc4c(c3Oc3cc5c(cc3OC)CCN(C)[C@@H]5C2)OCO4)CCN1C [Cepharantin, reference compound] |  |  | % Inhibition [2]: 2.32%
c1c2c(cc3c1OCO3)-c1cc3ccc4c(c3c[n+]1CC2)OCO4 [Coptisin, reference compound] |  |  | % Inhibition [2]: 98.97%
CS(=O)(=O)O.Cc1c(O)cccc1C(=O)N[C@@H](CSc1ccccc1)[C@H](O)CN1C[C@H]2CCCC[C@H]2C[C@H]1C(=O)NC(C)(C)C [Neifinavir-Mesylat, reference compound] |  |  | % Inhibition [2]: 9.49%
Cc1ccc(CN2C(=O)c3ccccc3C(C(=O)Nc3cccc(N4CCN(C)CC4)c3)C2c2ccc(Cl)c(Cl)c2)cc1 (centres unmarked) [OC245] | 0 |  | 
Cc1ccc(CN2C(=O)c3ccccc3C(C(=O)Nc3cccc(N4CCN(C)CC4)c3)C2c2ccc(Br)cc2)cc1 (centres unmarked) [OC247] | 6 | 30.6 | EC50 ([1]; read-out: EC50 mean [nM]): 6730 nM
Cc1ccc(CN2C(=O)c3ccccc3C(C(=O)NCCN(C)C)C2c2ccc(Cl)cc2)cc1 (centres unmarked) [OC250] | 19 |  | 
Cc1ccc(CN2C(=O)c3ccccc3C(C(=O)NCCN3CCCC3)C2c2ccc(Cl)cc2)cc1 (centres unmarked) [OC251] | 1 |  | 
COCCNC(=O)C1c2ccccc2C(=O)N(Cc2ccc(C)cc2)C1c1ccc(Cl)cc1 (centres unmarked) [OC252] | 0 |  | 
Cc1ccc(CN2C(=O)c3ccccc3C(C(=O)NCc3ccc(N(C)C)cc3)C2c2ccc(Cl)cc2)cc1 (centres unmarked) [OC254] | 16 |  | 
Cc1ccc(CN2C(=O)c3ccccc3C(C(=O)NCc3cccnc3)C2c2ccc(Cl)cc2)cc1 (centres unmarked) [OC255] | 2 |  | 
Cc1ccc(CN2C(=O)c3ccccc3C(C(=O)N3CCN(C)CC3)C2c2ccc(Cl)cc2)cc1 (centres unmarked) [OC256] | 8 |  | 
Cc1ccc(CN2C(=O)c3ccccc3C(C(=O)N3CCN(C=O)CC3)C2c2ccc(Cl)cc2)cc1 (centres unmarked) [OC258] | 0 |  | 
Cc1ccc(CN2C(=O)c3ccccc3C(C(=O)NCCN(C)C)C2c2ccc(C(F)(F)F)cc2)cc1 (centres unmarked) [OC377] | 35 | 81.6 | EC50 [1, 3]: 6750 nM
CN(C)CCNC(=O)C1c2ccccc2C(=O)N(Cc2ccc(C(F)(F)F)cc2)C1c1ccc(C(F)(F)F)cc1 (centres unmarked) [OC378] | 48 | 43.4 | EC50 [1, 3]: 5690 nM
Cc1ccc(C2C(C(=O)NCCN(C)C)c3ccccc3C(=O)N2Cc2ccc(C(F)(F)F)cc2)cc1 (centres unmarked) [OC379] | 26 | 33.4 | EC50 [1, 3]: 11900 nM
CN(C)CCNC(=O)C1c2ccccc2C(=O)N(Cc2ccc(N)cc2)C1c1ccc(C(F)(F)F)cc1 (centres unmarked) [OC380] | 3 | 72.6 | EC50 [1, 3]: 11400 nM
Cc1ccc(CN2C(=O)c3ccccc3C(C(=O)NCCN(C)C)C2c2ccc(C(F)(F)F)nc2)cc1 (centres unmarked) [OC381] | 41 | 43.7 | EC50 ([1]; read-out: EC50 mean [nM]): 17500 nM
CN(C)CCNC(=O)C1c2ccccc2C(=O)N(Cc2ccc(N(C)C)cc2)C1c1ccc(C(F)(F)F)cc1 (centres unmarked) [OC382] |  | 41.2 | EC50 [1, 3]: 2300 nM
CO[C@H]1C[C@@H]2CC[C@@H](C)[C@@](O)(O2)C(=O)C(=O)N2CCCC[C@H]2C(=O)O[C@H]([C@H](C)C[C@@H]2CC[C@@H](O)[C@H](OC)C2)CC(=O)[C@H](C)/C=C(\C)[C@@H](O)[C@@H](OC)C(=O)[C@H](C)C[C@H](C)/C=C/C=C/C=C/1C [Rapamycin, reference compound] |  | 21.1 | 

— patent publication US12630523B2, “Isoquinoline derivatives for use as antiviral and antitumour agents” (priority 2021, dated 2026)
